Key:
[1] = system: amnesia induced by the injection of vincristine; experiment: Evaluation test of the social memory in the rat after lesions caused by injection of vincristine; assay type: in vivo; settings: vincristine-lesioned rats
Procedure: In this model, the effects are evaluated of the products tested on amnesia induced by the injection of vincristine which induces biochemical alterations similar to the changes present in Alzheimer's disease.
The procedures used in this model, lesions caused by vincristine as well as the evaluation of the social memory are described in EP 655247.
Evaluation Test of the Social Memory in the Rat.
The dose of 1 mg/kg i.p. of tacrine is then administered to the two groups of rats.

[2] = system: amnesia induced by the injection of vincristine; settings: vincristine-lesioned rats; as described in EP 655247; cited from earlier work

SMILES	recovery of memory ([1]; solvent then tacrine 1 mg/kg i.p. (control group))	functional recovery in terms of memory ([1]; SR 57746A alone at 5 mg/kg p.o.)	efficacious dose (functional recovery of memory) [2] [mg/kg]
Nc1c2c(nc3ccccc13)CCCC2 [tacrine, reference compound]	no recovery of memory		
Cl.FC(F)(F)c1cccc(C2=CCN(CCc3ccc4ccccc4c3)CC2)c1 [SR 57746A, 1-(2-naphth-2-ylethyl)-4-(3-trifluoromethylphenyl)-1,2,3,6-tetrahydropyridine hydrochloride]		insufficient to permit functional recovery in terms of memory	10

— patent US20050148614A1 (priority 1997, published 2005)
